Activity calls are given as the source filed them. The calls are words filed in the database; no cut-off is given here.
Tests used:
[1] = target: Epidermal growth factor receptor (Homo sapiens, UniProt P00533, T790M/L858R); assay: (§1) Inhibition of EGFR T790M/L858R double mutant (unknown origin) using Tyr 4 peptide as substrate after 1.5 hrs by FRET-based Z'-LYTE assay; assay type: protein assay
[2] = target: Epidermal growth factor receptor (Homo sapiens, UniProt P00533, L858R); assay: Inhibition of EGFR L858R mutant (unknown origin) using Tyr 4 peptide as substrate after 1.5 hrs by FRET-based Z'-LYTE assay; assay type: protein assay
[3] = target: T1, Epidermal growth factor receptor (Homo sapiens, UniProt P00533); assay: Inhibition of wild type EGFR (unknown origin) using Tyr 4 peptide as substrate after 1.5 hrs by FRET-based Z'-LYTE assay
[4] = Antiproliferative activity against gefitinib-sensitive human HCC827 cells harboring EGFR E746 to A750 deletion after 72 hrs by MTS assay; assay type: functional, cell-based; settings: HCC827, 72 h
NCI-H1975 [5] = assay: cells; assay type: functional, cell-based; settings: Homo sapiens, NCI-H1975, 72 h
[6] = target: Epidermal growth factor receptor (Homo sapiens, UniProt P00533, L858R/T790M); assay: as §1; assay type: protein assay
[7] = test system: Epidermal growth factor receptor (Homo sapiens), P00533 [L858R]; settings: 1 uM
NCI-H1975 [8] = assay: Antitumor activity against human NCI-H1975 cells xenografted in nude mouse assessed as induction of tumor stasis at 20 mg/kg, ip qd for 14 days; assay type: functional, organism-based; design: dose 20 mg/kg
[9] = target: Receptor tyrosine-protein kinase erbB-2 (Homo sapiens) (UniProt P04626); settings: 1 uM
Sequence of Receptor tyrosine-protein kinase erbB-2 (Homo sapiens) (P04626 whole entry): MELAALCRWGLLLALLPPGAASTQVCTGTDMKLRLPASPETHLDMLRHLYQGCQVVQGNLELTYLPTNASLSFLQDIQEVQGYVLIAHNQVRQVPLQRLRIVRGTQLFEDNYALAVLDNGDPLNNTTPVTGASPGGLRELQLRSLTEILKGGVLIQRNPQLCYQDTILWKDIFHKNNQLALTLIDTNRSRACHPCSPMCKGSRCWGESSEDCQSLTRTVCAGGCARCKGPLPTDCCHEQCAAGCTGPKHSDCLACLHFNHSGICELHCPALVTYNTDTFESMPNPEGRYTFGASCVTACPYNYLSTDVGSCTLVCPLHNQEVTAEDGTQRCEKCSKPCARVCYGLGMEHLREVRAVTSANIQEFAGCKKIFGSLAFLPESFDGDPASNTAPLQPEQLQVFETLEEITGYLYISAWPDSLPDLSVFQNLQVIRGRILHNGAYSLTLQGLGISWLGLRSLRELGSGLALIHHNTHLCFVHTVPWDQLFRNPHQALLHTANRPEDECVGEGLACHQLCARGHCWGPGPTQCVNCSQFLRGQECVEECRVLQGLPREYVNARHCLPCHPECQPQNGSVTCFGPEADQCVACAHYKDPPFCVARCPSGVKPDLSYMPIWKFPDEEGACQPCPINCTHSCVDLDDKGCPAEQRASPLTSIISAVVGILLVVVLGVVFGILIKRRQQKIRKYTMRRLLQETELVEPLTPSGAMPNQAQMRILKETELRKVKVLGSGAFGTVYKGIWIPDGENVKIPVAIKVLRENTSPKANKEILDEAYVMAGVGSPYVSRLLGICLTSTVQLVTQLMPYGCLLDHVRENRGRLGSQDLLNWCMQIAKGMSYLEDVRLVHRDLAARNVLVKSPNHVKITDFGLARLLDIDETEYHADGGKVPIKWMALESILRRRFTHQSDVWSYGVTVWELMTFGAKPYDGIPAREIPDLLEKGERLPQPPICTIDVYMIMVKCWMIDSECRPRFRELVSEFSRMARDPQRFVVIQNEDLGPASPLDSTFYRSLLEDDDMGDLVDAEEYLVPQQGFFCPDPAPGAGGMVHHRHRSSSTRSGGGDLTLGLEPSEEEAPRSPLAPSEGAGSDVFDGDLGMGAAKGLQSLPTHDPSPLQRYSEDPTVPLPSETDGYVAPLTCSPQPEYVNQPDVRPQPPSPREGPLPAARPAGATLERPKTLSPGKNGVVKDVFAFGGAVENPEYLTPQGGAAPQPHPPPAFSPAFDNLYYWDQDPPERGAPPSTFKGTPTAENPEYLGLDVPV
Description: Inhibition of HER2 (unknown origin) at 1 uM after 1 hr relative to control

[10] = test system: Epidermal growth factor receptor (Homo sapiens), P00533 [L858R,T790M]; settings: 1 uM
NCI-H1975 [11] = assay: Antitumor activity against human NCI-H1975 cells xenografted in nude mouse assessed as tumor growth inhibition at 20 mg/kg, ip qd for 14 days; assay type: functional, organism-based; design: dose 20 mg/kg
[12] = test system: Epidermal growth factor receptor (Homo sapiens), P00533 [T790M]; settings: 1 uM
Mus musculus [13] = assay: Toxicity in nude mouse xenografted with human NCI-H1975 cells expressing T790M/L858R mutation assessed as body weight loss at 20 to 40 mg/kg, ip qd for 14 days relative to control; assay type: organism-based; design: dose 20-40 mg/kg, route intraperitoneal; settings: in vivo, 336 h
[14] = target: Tyrosine-protein kinase BTK (Homo sapiens) (UniProt Q06187); settings: 1 uM
Sequence of Tyrosine-protein kinase BTK (Homo sapiens) (Q06187 whole entry): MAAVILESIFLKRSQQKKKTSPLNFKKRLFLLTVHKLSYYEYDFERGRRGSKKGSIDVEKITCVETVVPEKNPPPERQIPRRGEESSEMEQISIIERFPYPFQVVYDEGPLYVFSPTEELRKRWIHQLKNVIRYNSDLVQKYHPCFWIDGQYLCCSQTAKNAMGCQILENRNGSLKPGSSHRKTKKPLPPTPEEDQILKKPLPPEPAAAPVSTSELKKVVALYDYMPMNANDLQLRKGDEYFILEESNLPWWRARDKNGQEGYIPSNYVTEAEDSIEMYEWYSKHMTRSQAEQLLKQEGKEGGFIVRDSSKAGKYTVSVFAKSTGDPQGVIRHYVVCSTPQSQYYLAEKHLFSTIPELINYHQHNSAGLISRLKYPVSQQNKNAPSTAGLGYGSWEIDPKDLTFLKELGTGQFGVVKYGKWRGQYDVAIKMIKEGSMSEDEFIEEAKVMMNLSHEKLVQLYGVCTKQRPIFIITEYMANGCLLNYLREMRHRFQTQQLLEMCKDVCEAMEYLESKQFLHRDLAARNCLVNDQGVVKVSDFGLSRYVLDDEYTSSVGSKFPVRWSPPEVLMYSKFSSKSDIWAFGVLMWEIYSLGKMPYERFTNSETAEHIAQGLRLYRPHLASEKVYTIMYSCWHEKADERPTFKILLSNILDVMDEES
Description: Inhibition of BTK (unknown origin) at 1 uM after 1 hr relative to control

[15] = Toxicity in ip dosed nude mouse xenografted with human NCI-H1975 cells expressing T790M/L858R mutation administered qd for 14 days; assay type: organism-based; settings: in vivo
[16] = target: T1, Epidermal growth factor receptor; settings: 1 uM
Description: Inhibition of EGFR (unknown origin) at 1 uM after 1 hr relative to control

[17] = target: Receptor tyrosine-protein kinase erbB-4 (Homo sapiens) (UniProt Q15303); settings: 1 uM
Sequence of Receptor tyrosine-protein kinase erbB-4 (Homo sapiens) (Q15303 whole entry): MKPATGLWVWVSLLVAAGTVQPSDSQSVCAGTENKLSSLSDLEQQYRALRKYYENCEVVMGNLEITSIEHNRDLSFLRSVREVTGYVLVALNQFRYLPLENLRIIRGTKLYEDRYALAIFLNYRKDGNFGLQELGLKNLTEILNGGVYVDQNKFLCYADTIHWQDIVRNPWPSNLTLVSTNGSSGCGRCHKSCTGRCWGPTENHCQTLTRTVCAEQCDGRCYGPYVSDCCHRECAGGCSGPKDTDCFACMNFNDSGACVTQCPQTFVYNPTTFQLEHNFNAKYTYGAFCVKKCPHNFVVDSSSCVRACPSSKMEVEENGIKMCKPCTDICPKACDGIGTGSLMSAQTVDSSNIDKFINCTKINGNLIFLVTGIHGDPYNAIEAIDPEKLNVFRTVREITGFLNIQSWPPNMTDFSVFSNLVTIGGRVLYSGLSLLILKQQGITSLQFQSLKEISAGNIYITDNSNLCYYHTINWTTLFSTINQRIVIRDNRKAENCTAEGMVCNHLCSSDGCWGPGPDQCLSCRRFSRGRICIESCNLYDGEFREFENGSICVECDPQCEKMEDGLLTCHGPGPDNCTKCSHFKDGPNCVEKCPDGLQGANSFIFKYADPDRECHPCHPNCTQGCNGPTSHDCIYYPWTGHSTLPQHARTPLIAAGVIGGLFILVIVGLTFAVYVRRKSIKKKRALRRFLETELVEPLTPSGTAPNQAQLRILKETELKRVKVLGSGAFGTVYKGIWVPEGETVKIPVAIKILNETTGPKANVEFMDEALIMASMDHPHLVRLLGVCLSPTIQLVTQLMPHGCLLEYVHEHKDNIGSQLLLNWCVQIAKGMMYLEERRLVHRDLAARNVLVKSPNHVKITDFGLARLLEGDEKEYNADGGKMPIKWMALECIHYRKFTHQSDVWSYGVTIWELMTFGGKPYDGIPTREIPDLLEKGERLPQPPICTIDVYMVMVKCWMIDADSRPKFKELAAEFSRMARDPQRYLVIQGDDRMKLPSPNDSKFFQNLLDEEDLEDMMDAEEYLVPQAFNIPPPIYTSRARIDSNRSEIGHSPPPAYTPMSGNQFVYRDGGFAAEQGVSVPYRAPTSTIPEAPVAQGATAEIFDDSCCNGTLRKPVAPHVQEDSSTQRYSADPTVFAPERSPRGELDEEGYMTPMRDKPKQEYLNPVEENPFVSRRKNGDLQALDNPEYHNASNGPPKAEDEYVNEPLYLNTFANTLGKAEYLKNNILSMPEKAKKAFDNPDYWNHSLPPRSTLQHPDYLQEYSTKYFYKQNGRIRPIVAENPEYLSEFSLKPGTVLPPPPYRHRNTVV
Description: Inhibition of HER4 (unknown origin) at 1 uM after 1 hr relative to control

[18] = target: T2, Tyrosine-protein kinase JAK3 (Homo sapiens) (UniProt P52333); settings: 1 uM
T2 sequence (whole entry): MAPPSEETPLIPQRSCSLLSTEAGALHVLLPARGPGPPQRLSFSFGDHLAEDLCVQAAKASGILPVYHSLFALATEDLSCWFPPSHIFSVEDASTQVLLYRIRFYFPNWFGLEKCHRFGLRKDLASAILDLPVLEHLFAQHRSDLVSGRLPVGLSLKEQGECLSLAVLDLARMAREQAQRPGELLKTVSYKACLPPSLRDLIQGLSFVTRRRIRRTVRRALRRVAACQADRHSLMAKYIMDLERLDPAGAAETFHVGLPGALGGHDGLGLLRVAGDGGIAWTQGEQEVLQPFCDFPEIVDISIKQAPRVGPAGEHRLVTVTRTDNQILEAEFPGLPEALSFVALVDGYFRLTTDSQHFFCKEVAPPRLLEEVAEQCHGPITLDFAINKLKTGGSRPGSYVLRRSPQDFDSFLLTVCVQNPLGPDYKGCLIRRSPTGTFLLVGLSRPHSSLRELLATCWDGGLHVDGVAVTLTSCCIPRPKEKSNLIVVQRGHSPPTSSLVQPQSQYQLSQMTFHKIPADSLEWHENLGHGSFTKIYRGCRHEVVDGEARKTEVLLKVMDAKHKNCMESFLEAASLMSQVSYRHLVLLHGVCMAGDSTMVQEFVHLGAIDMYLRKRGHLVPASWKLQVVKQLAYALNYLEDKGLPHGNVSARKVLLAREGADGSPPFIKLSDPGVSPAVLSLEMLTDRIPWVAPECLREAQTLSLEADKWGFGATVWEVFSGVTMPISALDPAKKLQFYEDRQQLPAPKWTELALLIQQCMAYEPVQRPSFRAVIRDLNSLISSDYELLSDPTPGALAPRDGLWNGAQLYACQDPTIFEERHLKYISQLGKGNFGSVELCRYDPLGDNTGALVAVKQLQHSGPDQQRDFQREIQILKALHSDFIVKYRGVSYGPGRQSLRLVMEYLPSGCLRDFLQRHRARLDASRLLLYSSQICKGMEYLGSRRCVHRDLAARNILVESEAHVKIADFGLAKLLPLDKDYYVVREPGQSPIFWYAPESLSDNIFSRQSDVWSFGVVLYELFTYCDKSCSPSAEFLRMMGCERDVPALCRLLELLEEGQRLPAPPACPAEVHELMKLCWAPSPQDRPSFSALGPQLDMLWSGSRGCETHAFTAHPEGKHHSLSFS
Description: Inhibition of JAK3 JH1 catalytic domain (unknown origin) at 1 uM after 1 hr relative to control

Mus musculus [19] = assay: Toxicity in nude mouse xenografted with human NCI-H1975 cells expressing T790M/L858R mutation assessed as mortality at 20 to 40 mg/kg, ip qd for 14 days; assay type: organism-based; design: dose 20-40 mg/kg, route intraperitoneal; settings: in vivo, 336 h

SMILES	IC50 (NCI-H1975 [5]) [nM]	IC50 [6] [nM]	IC50 ([2]; read-out: IC50) [nM]	IC50 ([3]; read-out: IC50) [nM]	IC50 [4] [nM]	also measured
CCC(=O)Nc1cccc(-n2c(=O)cnc3cnc(Nc4ccc(OC)cc4)nc32)c1	> 10000	–	–	–	> 10000	IC50 [1]: Not Active; IC50 [2]: Not Active; IC50 [3]: Not Active
C=CC(=O)Nc1ccc(-n2c(=O)c(C)nc3cnc(Nc4ccc(OC)cc4)nc32)cc1	> 10000	35000	7170	16300	2760	–
C=CC(=O)Nc1cccc(-n2c(=O)cnc3cnc(Nc4ccc(N5CCN(C)CC5)cc4)nc32)c1	62.2	0.677	1.32	1.21	4.02	–
C=CC(=O)Nc1cccc(-n2c(=O)cnc3cnc(Nc4ccc(N5CCN(C)CC5)cc4OC)nc32)c1	59	1.07	2.56	3.82	8.6	residual activity [7]: 0.3%; Activity (NCI-H1975 [8]): Active; residual activity [9]: < 10%; residual activity [10]: 0.1%; TGI (NCI-H1975 [11]): Active; residual activity [12]: 0.35%; Activity (Mus musculus [13]): < 5%; residual activity [14]: < 1%; MTD at 336 h [15]: 20 mg/kg; residual activity [16]: < 10%; residual activity [17]: < 1%; residual activity [18]: < 10%; Activity (Mus musculus [19]): Non-toxic
C=CC(=O)Nc1cccc(-n2c(=O)cnc3cnc(Nc4ccc(Cl)cc4)nc32)c1	2240	17.6	49.1	47.1	175	–
COc1ccc(Nc2ncc3ncc(=O)n(-c4ccc(NC(=O)/C=C/CN(C)C)cc4)c3n2)cc1	> 10000	31.3	76.5	59.1	8380	–
CCC(=O)Nc1ccc(-n2c(=O)cnc3cnc(Nc4ccc(OC)cc4)nc32)cc1	> 10000	–	–	–	> 10000	IC50 [1]: Not Active; IC50 [2]: Not Active; IC50 [3]: Not Active
C=CC(=O)Nc1ccc(Nc2ncc3ncc(=O)n(-c4ccc(OC)cc4)c3n2)cc1	1330	70200	70600	33900	1460	–
C=CC(=O)Nc1cccc(-n2c(=O)cnc3cnc(Nc4ccc(N5CCOCC5)cc4)nc32)c1	255	2.86	7.26	6.95	15.2	–
COc1ccc(-n2c(=O)cnc3cnc(Nc4cccc(N)c4)nc32)cc1	> 10000	3840	8040	18300	> 10000	–
C=CC(=O)Nc1ccc(-n2c(=O)cnc3cnc(Nc4ccc(OC)cc4)nc32)cc1	2200	4800	23700	5130	1690	–
COc1ccc(Nc2ncc3ncc(=O)n(-c4cccc(NC(=O)/C=C/CN(C)C)c4)c3n2)cc1	559	56200	32800	26300	917	–
C=CC(=O)Nc1cccc(-n2c(=O)cnc3cnc(Nc4ccc(N5CCCC5)cc4)nc32)c1	579	4.96	13	15.3	70.8	–
C=CC(=O)Nc1ccc(-n2c(=O)cnc3cnc(Nc4ccc(Cl)cc4)nc32)cc1	> 10000	144	496	374	> 10000	–

Second part, led by results:

IC50 (NCI-H1975 [5]) [nM]	IC50 [6] [nM]	IC50 ([2]; read-out: IC50) [nM]	IC50 ([3]; read-out: IC50) [nM]	SMILES	IC50 [4] [nM]	also measured
> 10000	–	–	–	C=CC(=O)Nc1ccc(-n2c(=O)cnc3cnc(Nc4ccccc4)nc32)cc1	> 10000	IC50 [1]: Not Active; IC50 [2]: Not Active; IC50 [3]: Not Active
2740	272	496	395	C=CC(=O)Nc1ccc(-n2c(=O)cnc3cnc(Nc4ccc(N5CCN(C)CC5)cc4OC)nc32)cc1	503	–
8480	3.97	11.8	12.1	C=CC(=O)Nc1cccc(-n2c(=O)cnc3cnc(Nc4ccc(C(N)=O)cc4)nc32)c1	511	–
> 10000	–	8450	25800	COc1ccc(-n2c(=O)cnc3cnc(Nc4ccc(N)cc4)nc32)cc1	> 10000	–
2360	–	–	–	C=CC(=O)Nc1cccc(Nc2ncc3ncc(=O)n(-c4ccc(OC)cc4)c3n2)c1	1220	IC50 [1]: Not Active; IC50 [2]: Not Active; IC50 [3]: Not Active
4090	4.72	14.1	14.5	C=CC(=O)Nc1cccc(-n2c(=O)cnc3cnc(Nc4ccc(N(CC)CC)cc4)nc32)c1	44.5	–
63.8	5.6	14.8	13.8	C=CC(=O)Nc1cccc(-n2c(=O)cnc3cnc(Nc4ccc(OC)cc4)nc32)c1	9.49	–
6140	691	1510	1100	C=CC(=O)Nc1ccc(-n2c(=O)cnc3cnc(Nc4ccc(N5CCN(C)CC5)cc4)nc32)cc1	2370	–
> 10000	21300	55900	–	COc1ccc(Nc2ncc3ncc(=O)n(-c4cccc(N)c4)c3n2)cc1	> 10000	IC50 [3]: Not Active
5900	59.1	123	60.4	C=CC(=O)Oc1ccc(-n2c(=O)cnc3cnc(Nc4ccc(OC)cc4)nc32)cc1	8590	–
298	5.12	14.8	15.7	C=CC(=O)Nc1cccc(-n2c(=O)cnc3cnc(Nc4ccc(N5CCCCC5)cc4)nc32)c1	25.3	–
> 10000	–	–	–	COc1ccc(Nc2ncc3ncc(=O)n(-c4ccc(N)cc4)c3n2)cc1	> 10000	IC50 [1]: Not Active; IC50 [2]: Not Active; IC50 [3]: Not Active
4080	4.53	14	12.5	C=CC(=O)Nc1cccc(-n2c(=O)cnc3cnc(Nc4ccc(NC(C)=O)cc4)nc32)c1	388	–
> 10000	–	–	–	CN(C)C/C=C/C(=O)Nc1ccc(-n2c(=O)cnc3cnc(Nc4ccccc4)nc32)cc1	5010	IC50 [1]: Not Active; IC50 [2]: Not Active; IC50 [3]: Not Active
> 10000	3460	8670	5590	C=CC(=O)Nc1ccc(-n2c(=O)cnc3cnc(Nc4ccc(N5CCOCC5)cc4)nc32)cc1	7160	–

Source: ChEMBL document CHEMBL2434822, “Discovery of pteridin-7(8H)-one-based irreversible inhibitors targeting the epidermal growth factor receptor (EGFR) kinase T790M/L858R mutant” (J Med Chem, 2013)
